# From patent US8153807B2, “Inhibitors of 11-beta-hydroxysteroid dehydrogenase 1” (Eli Lilly and Company, priority 2006, dated 2012)
# Experiments:
# [1] = system: cortisone conversion; assay: Acute in vivo cortisone conversion assay; details: Mus musculus; male C57BL/6 mice, oral dose 10 mg/kg, cortisone challenge 16 hours post dose, serum cortisol; read-out: % Inhibition after 16 hours (dose of 10 (mg/kg))
# Procedure: Acute In Vivo Cortisone Conversion Assay
# In general, compounds are dosed orally into mice, the mice are challenged with a subcutaneous injection of cortisone at a set timepoint after compound injection, and the blood of each animal is collected some time later. Separated serum is then isolated and analyzed for levels of cortisone and cortisol by LC-MS/MS, followed by calculation of mean cortisol and percent inhibition of each dosing group. Specifically, male C57BL/6 mice are obtained from Harlan Sprague Dawley at average weight of 25 grams. Exact weights are taken upon arrival and the mice randomized into groups of similar weights. Compounds are prepared in 1% w-w HEC, 0.25% w-w polysorbate 80, 0.05% w-w Dow Corning antifoam #1510-US at various doses based on assumed average weight of 25 grams. Compounds are dosed orally, 200 μl per animal, followed by a subcutaneous dose, 200 μl per animal, of 30 mg/kg cortisone at 1 to 24 hours post compound dose. At 10 minutes post cortisone challenge, each animal is euthanized for 1 minute in a CO2 chamber, followed by blood collection via cardiac puncture into serum separator tubes. Once fully clotted, tubes are spun at 2500×g, 4° C. for 15 minutes, the serum transferred to wells of 96-well plates (Corning Inc, Costar #4410, cluster tubes, 1.2 ml, polypropylene), and the plates are frozen at −20° C. until analysis by LC-MS/MS. For analysis, serum samples are thawed and the proteins are precipitated by the addition of acetonitrile containing d4-cortisol internal standard. Samples are vortex mixed and centrifuged. The supernatant is removed and dried under a stream of warm nitrogen. Extracts are reconstituted in methanol/water (1:1) and injected onto the LC-MS/MS system. The levels of cortisone and cortisol are assayed by selective reaction monitoring mode following positive ACPI ionization on a triple quadrupole mass spectrophotometer.
# [2] = target: T1, 11-β-HSD1 (Homo sapiens, UniProt P28845); assay: Human aortic smooth muscle cell assay; type: cell-based; details: primary human AoSMC, hTNFα-induced 11-β-HSD1, cortisol immunoassay
# T1 construct: assay medium containing 12 ng/mL hTNFα to induce expression of 11-β-HSD1; endogenous in cells; host or cells: primary human aortic smooth muscle cells (AoSMC), induced with hTNFα
# T1 sequence (P28845 whole entry): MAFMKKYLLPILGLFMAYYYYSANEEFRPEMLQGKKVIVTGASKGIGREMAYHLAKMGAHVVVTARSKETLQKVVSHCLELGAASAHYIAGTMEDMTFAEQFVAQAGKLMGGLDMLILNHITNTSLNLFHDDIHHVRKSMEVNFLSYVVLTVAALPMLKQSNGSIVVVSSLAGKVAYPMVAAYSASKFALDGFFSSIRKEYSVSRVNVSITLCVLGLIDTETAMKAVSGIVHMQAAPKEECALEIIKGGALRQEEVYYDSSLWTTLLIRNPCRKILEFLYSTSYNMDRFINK
# Procedure: Human Aortic Smooth Muscle Cell Assay
# Primary human aortic smooth muscle cells (AoSMC) are cultured in 5% FBS growth medium to a passage number of 6, then pelleted by centrifugation and resuspended at a density of 9×10^4 cells/mL in 0.5% FBS assay medium containing 12 ng/mL hTNFα to induce expression of 11-β-HSD1. Cells are seeded into 96-well tissue culture assay plates at 100 μL/well (9×10^3 cells/well) and incubated for 48 hours at 37° C., 5% CO2. Following induction, cells are incubated for 4 hours at 37° C., 5% CO2 in assay medium containing test compounds then treated with 10 μL/well of 10 μM cortisone solubilized in assay medium, and incubated for 16 hours at 37° C., 5% CO2. Medium from each well is transferred to a plate for subsequent analysis of cortisol using a competitive fluorescence resonance time resolved immunoassay. In solution, an allophycocyanin (APC)-cortisol conjugate and free cortisol analyte compete for binding to a mouse anti-cortisol antibody/Europium (Eu)-anti mouse IgG complex. Higher levels of free cortisol result in diminishing energy transfer from the Europium-IgG to the APC-cortisol complex resulting in less APC fluorescence. Fluorescent intensities for Europium and APC are measured using a LJL Analyst AD. Europium and APC excitation is measured using 360 nm excitation and 615 nm and 650 nm emission filters respectively. Time resolved parameters for Europuium were 1000 μs integration time with a 200 μs delay. APC parameters are set at 150 μs integration time with a 50 μs delay. Fluorescent intensities measured for APC are modified by dividing by the Eu fluorescence (APC/Eu). This ratio is then used to determine the unknown cortisol concentration by interpolation using a cortisol standard curve fitted with a 4-parameter logistic equation. These concentrations are then used to determine compound activity by plotting concentration versus % inhibition, fitting with a 4-parameter curve and reporting the IC50.
# [3] = target: T2, 11-βHSD2 enzyme (Homo sapiens, UniProt P80365); assay: Selectivity against 11-βHSD2 in an enzyme assay similar to the 11β-HSD type 1 enzyme assay; type: biochemical; details: 11-βHSD1 versus 11-βHSD2 enzyme
# T2 sequence (P80365 1-405): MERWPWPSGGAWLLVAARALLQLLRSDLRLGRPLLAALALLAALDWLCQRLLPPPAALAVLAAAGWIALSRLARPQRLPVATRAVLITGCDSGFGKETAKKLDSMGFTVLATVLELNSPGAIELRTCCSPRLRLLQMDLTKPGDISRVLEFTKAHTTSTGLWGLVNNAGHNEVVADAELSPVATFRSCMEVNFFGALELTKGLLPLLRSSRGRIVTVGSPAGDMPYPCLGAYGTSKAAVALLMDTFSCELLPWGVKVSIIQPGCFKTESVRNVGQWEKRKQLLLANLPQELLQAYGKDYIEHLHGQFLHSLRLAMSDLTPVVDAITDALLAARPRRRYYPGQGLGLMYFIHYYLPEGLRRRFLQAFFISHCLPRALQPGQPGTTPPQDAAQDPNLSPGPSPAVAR
# Procedure: 11β-HSD Type 1 Enzyme Assay
# Human 11β-HSD type 1 activity is measured by assaying NADPH production by fluorescence assay. Solid compounds are dissolved in DMSO to a concentration of 10 mM. Twenty microliters of each are then transferred to a column of a 96-well polypropylene Nunc plate where they are further diluted 50-fold followed by subsequent two-fold titration, ten times across the plate with additional DMSO using a Tecan Genesis 200 automated system. Plates are then transferred to a Tecan Freedom 200 system with an attached Tecan Temo 96-well head and an Ultra 384 plate reader. Reagents are supplied in 96-well polypropylene Nunc plates and are dispensed individually into black 96-well Molecular Devices High Efficiency assay plates (40 μL/well capacity) in the following fashion: 9 μL/well of substrate (2.22 mM NADP, 55.5 μM Cortisol, 10 mM Tris, 0.25% Prionex, 0.1% Triton X100), 3 μL/well of water to compound wells or 3 μL to control and standard wells, 6 μL/well recombinant human 11β-HSD type 1 enzyme, 2 μL/well of compound dilutions. […] Plates are then shaken once more for 15 seconds then placed into an Ultra 384 microplate reader (355EX/460EM) for detection of NADPH fluorescence. […]
Compound,inhibition at 10 mg/kg [1] [%],IC50 [2] [nM],fold greater inhibition of 11-βHSD1 enzyme as compared to the inhibition of 11-βHSD2 [3] [fold]
"O=C(c1ccc(-c2cc(Cl)c(C[C@@H]3CCN(N4CCOCC4)C3=O)c(Cl)c2)cc1)N1CCC(C(F)(F)F)CC1 [Example 3, (R)-3-[3,5-Dichloro-4′-(4-trifluoromethyl-piperidine-1-carbonyl)-biphenyl-4-ylmethyl]-1-morpholin-4-yl-pyrrolidin-2-one]",82,67,–
"O=C1[C@H](Cc2c(Cl)cc(-c3ccc(F)cc3)cc2Cl)CCN1N1CCC(O)CC1 [Example 6, (R)-3-(3,5-Dichloro-4′-fluoro-biphenyl-4-ylmethyl)-1-(4-hydroxy-piperidin-1-yl)-pyrrolidin-2-one Trifluoro Acetate]",55,5.7,–
"O=C(c1ccc(-c2cc(Cl)c(C[C@@H]3CCN(N4CCC(O)CC4)C3=O)c(Cl)c2)cc1)N1CCC(C(F)(F)F)CC1 [Example 7, (R)-3-[3,5-Dichloro-4′-(4-trifluoromethyl-piperidine-1-carbonyl)-biphenyl-4-ylmethyl]-1-(4-hydroxy-piperidin-1-yl)-pyrrolidin-2-one]",98,14.3,145
"O=C(c1ccc(-c2cc(Cl)c(C[C@@H]3CCN(N4CCC(O)CC4)C3=O)c(Cl)c2)cc1)N1CCC(F)(F)CC1 [Example 8, (R)-3-[3,5-Dichloro-4′-(4,4-difluoro-piperidine-1-carbonyl)-biphenyl-4-ylmethyl]-1-(4-hydroxy-piperidin-1-yl)-pyrrolidin-2-one]",94,43,–
